Where two headings read alike, the source gives them in different places.
What was measured:
Format in all cases: cell-based
KAS-6/1 = test: IC50 of multiple myeloma drugs alone and with IC20 SNS01-T, KAS-6/1; conditions: for fold less IC50 with IC20 SNS01-T: KAS-6/1, with versus without IC20 SNS01-T
U266 = test: IC50 of multiple myeloma drugs alone and with IC20 SNS01-T, U266; conditions: for IC50: Homo sapiens, U-266; for fold less IC50 with IC20 SNS01-T: U266, with versus without IC20 SNS01-T
RPMI-8226 = test: IC50 of multiple myeloma drugs alone and with IC20 SNS01-T, RPMI-8226; conditions: for IC50: Homo sapiens; for fold less IC50 with IC20 SNS01-T: RPMI-8226, with versus without IC20 SNS01-T
[1] = KAS-6/1, drug alone, read-out: IC50
[2] = KAS-6/1, with IC20 SNS01-T, read-out: IC50 with IC20 SNS01-T
[3] = U266, drug alone, read-out: IC50
[4] = U266, with IC20 SNS01-T, read-out: IC50 with IC20 SNS01-T
[5] = RPMI-8226, drug alone, read-out: IC50
[6] = RPMI-8226, with IC20 SNS01-T, read-out: IC50 with IC20 SNS01-T

## CC(C)C[C@H](NC(=O)[C@H](Cc1ccccc1)NC(=O)c1cnccn1)B(O)O [Bortezomib, bortezomib]
KAS-6/1; [1]
  IC50: 7.31 nM
KAS-6/1; [2]
  IC50: 2.64 nM
KAS-6/1
  fold less IC50 with IC20 SNS01-T: ~2.8 ×
U266; [3]
  IC50: 2.86 nM
U266; [4]
  IC50: 0.83 nM
U266
  fold less IC50 with IC20 SNS01-T: ~3.4 ×
RPMI-8226; [5]
  IC50: 2.12 nM
RPMI-8226; [6]
  IC50: 1.51 nM
RPMI-8226
  fold less IC50 with IC20 SNS01-T: ~1.4 ×

## Nc1cccc2c1CN(C1CCC(=O)NC1=O)C2=O (stereo not drawn) [Lenalidomide, lenalidomide]
KAS-6/1; [1]
  IC50: 69800 nM
KAS-6/1; [2]
  IC50: 2370 nM
KAS-6/1
  fold less IC50 with IC20 SNS01-T: ~29 ×
U266; [3]
  IC50: 62000 nM
U266; [4]
  IC50: 1420 nM
U266
  fold less IC50 with IC20 SNS01-T: ~43.7 ×
RPMI-8226; [5]
  IC50: 84900 nM
RPMI-8226; [6]
  IC50: 3280 nM
RPMI-8226
  fold less IC50 with IC20 SNS01-T: 25.9 ×

From patent publication US20140314704A1, “Treatment of B Cell Lymphomas” (Senesco Technologies, Inc., priority 2011, published 2014)
